Reference: US8039464B2, “Muscarinic antagonists with PARP and SIR modulating activity as agents for inflammatory diseases” (ProteoSys AG, priority 2004, dated 2011)
Where “and” joins values, the source holds several entries; their conditions need not be identical. Identical values can stand only once. Entries after “also recorded” stand apart in the source; their conditions may differ. Like-named read-outs stand apart in the source and are kept apart here.

How the values were obtained:
PARP-1 = biological target: T1, PARP-1 (Homo sapiens, UniProt P09874); assay: PARP inhibition assay (R&D Systems, Cat. No. TA4669); format: biochemical
T1 construct: purchased R&D Systems TA4669
Excerpt: A PARP inhibition assay from R&D Systems was used (Cat. No. TA4669) according to instructions of the supplier.
Under cellular conditions PARP-1 poly-ADP-ribosylates a host of nuclear proteins, including topoisomerase 1, 14-3-3 g and PARP-1 itself. Thus under cellular conditions, the self-modification of PARP-1 and dimerization are regulating its activity, moreover there is a tight interplay with PARG (poly-ADP-ribosyl-glycohydroxylase).

SIR-2 = biological target: T2, SIR-2 (Mus musculus, UniProt Q923E4); assay: SIR2 activity assay (CycLex SIR2 Assay kit); format: biochemical, murine
T2 construct: Using a raw extract from murine embryonic stem cells; host or cells: murine embryonic stem cells (raw extract)
T2 sequence (Q923E4 2-737 limits assumed): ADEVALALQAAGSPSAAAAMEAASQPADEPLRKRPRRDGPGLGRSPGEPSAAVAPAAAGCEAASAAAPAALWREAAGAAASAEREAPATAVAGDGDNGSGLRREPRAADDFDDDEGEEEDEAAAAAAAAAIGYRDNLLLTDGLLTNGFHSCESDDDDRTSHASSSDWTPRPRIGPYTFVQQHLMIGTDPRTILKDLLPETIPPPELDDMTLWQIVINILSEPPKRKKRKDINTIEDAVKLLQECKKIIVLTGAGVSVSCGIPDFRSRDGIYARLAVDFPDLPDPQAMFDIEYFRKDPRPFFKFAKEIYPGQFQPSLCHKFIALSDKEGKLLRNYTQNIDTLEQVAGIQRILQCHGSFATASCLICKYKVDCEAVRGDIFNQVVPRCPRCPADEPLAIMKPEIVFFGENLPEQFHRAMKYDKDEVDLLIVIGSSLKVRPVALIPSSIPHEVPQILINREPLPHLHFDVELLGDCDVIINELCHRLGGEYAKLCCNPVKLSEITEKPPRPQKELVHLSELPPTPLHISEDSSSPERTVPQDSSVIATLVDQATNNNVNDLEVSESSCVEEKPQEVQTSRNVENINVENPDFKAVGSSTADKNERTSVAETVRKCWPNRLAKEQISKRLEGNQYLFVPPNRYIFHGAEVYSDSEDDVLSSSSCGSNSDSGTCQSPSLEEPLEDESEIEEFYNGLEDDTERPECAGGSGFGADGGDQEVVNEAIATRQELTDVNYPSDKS
Excerpt: For measurements of SIR2 activities, the quantitative test kit for NAD-dependent histone deacetylase activity CycLex® SIR2 Assay kit (Cat# CY-1151) was used according to instructions of manufacturer (CycLex Co., Ltd. 1063-103 Ohara, Tera-Sawaoka Ina, Nagano 396-0002 Japan). All substances tested in the SIR assay were cross-checked for their influence on the lysyl-endopeptidase. For this control an already deacetylated substrate peptide was used in order to measure directly lysyl-endopeptidase activity.
For measurements of SIR2 activities, the quantitative test kit for NAD-dependent histone deacetylase activity CycLex® SIR2 Assay kit (Cat# CY-1151) was used according to instructions of manufacturer (CycLex Co., Ltd. 1063-103 Ohara, Tera-Sawaoka Ina, Nagano 396-0002 Japan).

[1] = test system: D3 embryonic stem (ES) cells, neurons; assay: Cell culture model for chemical ischemia and neuroprotection (calcium imaging); format: cell-based, mice; conditions: β-methyl-cyclodextrin or filipin
Description: For all experiments, D3 embryonic stem (ES) cells derived from 129/sv mice [Okabe et al., 1996] were cultivated for 12 days, with passages on days 2, 4, 7 and 9 as described previously [Sommer et al., 2004]. Insult conditions: Cells (24-well plates) were pre-incubated with or without 20 nM EPO in fresh medium for 24 hours at 37° C. Cells were rinsed once with low K^+ solution (140 mM NaCl, 4.7 mM KCl, 1.2 mM KH2PO4, 2.5 mM CaCl2, 1.2 mM MgSO4, 11 mM glucose, 15 mM Hepes-NaOH, pH 7.35). Cells (either with or without EPO pre-incubation) were incubated for up to 45 min (37° C.) with either low K^+ solution or with glucose-free low K^+ solution supplemented with 1 mM KCN (chemical ischemia solution [Kume et al., 2002]). Vitality control to asses numbers of surviving neurons was performed by a brief stimulation with a low dose of glutamate (10 μM). Afterwards, cells were washed three times with ice cold phosphate buffered saline (PBS), and then proteins were harvested. Suspended cells were pelleted at 500×G, and lysed into 9M urea 4% CHAPS. The cell lysate was desalted with a NAP-10 column (Amersham Biosciences), preequilibrated with the same buffer, and protein content was determined.
Functional tests by calcium imaging were performed essentially as described [Sommer et al., 2004]. Briefly, cells were loaded with 2 μM of […] in DMEM for 45 min at 37° C. in the dark. Measurements of relative changes in [Ca^2+] were made on an inverted epifluorescence microscope (Olympus IX70 S1F2) with a Polychrom IV Monochromator (Xe-lamp, USHIO). Excitation wavelengths (λ1, λ2) and the emission wavelength were 340, 380 and 510 nm, respectively. Acquisition and analysis of data after appropriate stimulation were performed by using MetaFluor software (Universal Imaging Corporation). Image resolution was 168×129 pixels (binning 8×8, pixel size 6.8×6.8 μm). Only cells identified as neurons by morphological criteria and occasional immunostaining (not shown) and those whose calcium levels returned to the resting state after the first stimulation were taken into account. Controls included nominal zero calcium (negative) and 5 μM ionomycin (positive), 10 μM glutamate (positive) and depolarisation (55 mM K+) (positive). Pharmacological agents were applied by a multi-valve, single-output focal drug application device (ALA Scientific) with the perfusion system DAD-12. […] During each stimulation event 20 image pairs were acquired.

[2] = test system: poly-ADP-ribosylated proteins; assay: PARP inhibition under cellular conditions (Western blot of poly-ADP-ribosylated proteins); format: cell-based; conditions: ischemic insult of neural cells by KCN/glucose deprivation; read-out: IC 50 of decrease of poly-ADP-ribosylated proteins
3T3 fibroblasts = assay: LPS challenge, cell survival by Trypan Blue; format: cell-based; conditions: LPS 100 ng/ml for 60 min
Description: (§1) Cell pellets were further investigated by Western blot staining with anti Cox-2 and anti iNOS antibodies of 1D polyacrylamide gels.
(§2) Cell survival was assessed by Trypan Blue staining.

A 549 cells = assay: LPS challenge, cell survival by Trypan Blue; format: cell-based; conditions: LPS 100 ng/ml for 60 min
Description: as §1, §2

[3] = test system: neurally differentiated V56 embryonic stem cells; assay: LPS challenge, cell survival by Trypan Blue; format: cell-based; conditions: LPS 100 ng/ml for 60 min
Description: as §1, §2

[4] = test system: undifferentiated V56 embryonic stem cells; assay: LPS challenge, cell survival by Trypan Blue; format: cell-based; conditions: LPS 100 ng/ml for 60 min
Description: as §1, §2

iNOS and Cox-2 = assay: Cox-2 and iNOS expression after LPS challenge (Western blot); format: cell-based; conditions: LPS 100 ng/ml for 60 min
Description: as §1, §2

[5] = Blood-brain-barrier passage: HPLC of plasma and CSF
Excerpt: J. Gastroenterol. 66, 35ff.; Homon et al., 1987, Therapeutic Drug Monitoring 9, 236ff.).

[6] = test system: traumatic brain injury (TBI); assay: Controlled Cortical Impact Injury (traumatic brain injury model); format: in vivo
Description: The model employed a direct shock to the dura via a burrhole, animals were treated according to the following schemes: Vehicle, LS-75, 8 animals per group starting the study, 2 spare animals; animals were sacrificed 44 h after injury, the endpoints were survival, post injury signs, lesion size by FLB (Fast Luxol Blue) and EMAP (Endothelial, Monocyte, Activating Peptide) staining. The dosing i.p. 100 mg/kg 2 h prior to injury; 40 mg/kg i.p. 2 h after injury; 40 mg/kg i.p. 8 h after injury; 40 mg/kg i.p. 17 h after injury; 40 mg/kg i.p. 25 h after injury; 70 mg/kg i.p. 34 h after injury; Formulation: LS-75 was prepared as a DMSO slurry (not solution) in a mortar and pestle and saline will be added slowly with grinding to reach 4% DMSO final concentration. The suspension is maintained at room temperature and the preparation used for the duration of the study. To vary dose, the volume injected may change. Volume for 100 mg/kg was be 4 mL/kg.

T1 sequence (P09874 whole entry): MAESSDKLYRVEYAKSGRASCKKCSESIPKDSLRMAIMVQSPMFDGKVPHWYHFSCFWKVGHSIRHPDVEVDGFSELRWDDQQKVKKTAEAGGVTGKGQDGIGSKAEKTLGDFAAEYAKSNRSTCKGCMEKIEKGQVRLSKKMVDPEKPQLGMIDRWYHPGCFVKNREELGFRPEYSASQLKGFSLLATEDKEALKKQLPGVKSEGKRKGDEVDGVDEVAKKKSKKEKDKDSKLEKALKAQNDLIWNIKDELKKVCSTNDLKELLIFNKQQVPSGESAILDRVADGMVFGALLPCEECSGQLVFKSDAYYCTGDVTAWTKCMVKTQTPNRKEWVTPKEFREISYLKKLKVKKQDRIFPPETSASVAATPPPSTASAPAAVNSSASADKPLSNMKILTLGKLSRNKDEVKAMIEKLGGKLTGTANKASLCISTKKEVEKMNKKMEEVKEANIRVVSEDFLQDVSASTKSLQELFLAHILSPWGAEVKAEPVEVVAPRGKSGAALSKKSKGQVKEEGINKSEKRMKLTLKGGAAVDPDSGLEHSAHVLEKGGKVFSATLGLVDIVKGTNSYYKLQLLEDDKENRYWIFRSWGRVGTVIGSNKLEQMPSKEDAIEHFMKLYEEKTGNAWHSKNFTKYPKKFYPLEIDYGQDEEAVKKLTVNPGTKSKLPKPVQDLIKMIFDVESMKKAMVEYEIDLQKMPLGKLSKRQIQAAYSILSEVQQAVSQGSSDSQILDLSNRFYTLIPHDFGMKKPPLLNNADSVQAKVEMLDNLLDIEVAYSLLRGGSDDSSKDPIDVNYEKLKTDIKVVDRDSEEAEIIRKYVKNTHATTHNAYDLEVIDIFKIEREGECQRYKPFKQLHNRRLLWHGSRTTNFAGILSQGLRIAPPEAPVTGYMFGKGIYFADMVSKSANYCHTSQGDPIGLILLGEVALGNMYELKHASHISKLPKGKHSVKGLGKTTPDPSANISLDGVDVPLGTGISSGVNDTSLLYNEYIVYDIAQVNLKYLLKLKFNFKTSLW

## O=C1Nc2cccnc2Nc2ccccc21 [LS-75, 6H-pyrido[2,3-b][1,4]benzodiazepin-6-one]
PARP-1
  PARP-1 inhibition (in words): moderately strong PARP-1 inhibitor
PARP-1; IC50 PARP-1 inhibition, R&D assay, recombinant monomeric PARP-1
  IC50: 18 µM and ~20 µM
SIR-2
  IC50: 1000 to 5000 µM
  SIR-2 inhibition (in words): weak SIR 2 inhibitor; also recorded: weak SIR-2 inhibitors
SIR-2; listed as PBD/LS-75
  SIR-2 inhibition (in words): weak inhibitory effect
[1]
  neuroprotective effect under raft-disrupting conditions: does not occur
[2]
  IC50: ~0.3 µM
3T3 fibroblasts
  protection from LPS challenge: protect
A 549 cells
  protection from LPS challenge: protect
[3]
  protection from LPS challenge: protect
[4]
  protection from LPS challenge: protect
iNOS and Cox-2
  expression of inducible inflammatory markers iNOS and Cox-2: decreased expression
[5]; LS-75 applied directly
  passage through the BBB: substantial passage
[5]; after Pirenzepine application, after 6 h
  LS-75 levels in CSF: substantial increase
[5]; rat, in vivo, 50 mg/kg
  Kp: 0.25 to 0.3
[5]; rats, Mevastatin 0.15 mg/day for 14 days before oral gavage
  LS-75 in CSF after Mevastatin pretreatment: far less
[5]; rats, Mevastatin 0.15 mg/day for 14 days before oral gavage of 50 mg Pirenzepine and LS-75
  higher concentrations in plasma after Mevastatin pretreatment: about 50%
[6]; 44 h after induction of TBI, i.p. dosing, compared to vehicle controls
  reduction of secondary lesions: approx. 50%
[6]; contralateral hippocampus, compared to controls
  reduction of markers for cell damage (fast luxol blue and EMAP): 40-60%
